# Measured values published in article PMC3842914, “Meleagrin, a New FabI Inhibitor from Penicillium chryosogenum with at Least One Additional Mode of Action” (PLoS ONE, 2013).
# Like-named read-outs stand apart in the source and are kept apart here.
# Key:
# S. aureus RN4220 = test: MIC by broth microdilution, S. aureus RN4220 (wild type); format: cell-based, Staphylococcus aureus; conditions: for MIC: Staphylococcus aureus, S. aureus RN4220 (wild type); for Antibacterial activity relative to compound 1: against S. aureus RN4220 and E. coli KCTC 1924
# Description: (§1) Whole-cell antimicrobial activity was determined by broth microdilution as described previously. The test strains except for S. pneumoniae were grown to mid-log phase in Mueller–Hinton broth and diluted 1,000-fold in the same medium. Cells (10^5/mL) were inoculated into Mueller–Hinton broth and dispensed at 0.2 mL/well into a 96-well microtiter plate. S. pneumoniae was grown in tryptic soy broth supplemented with 5% sheep blood. MICs were determined in triplicate by serial 2-fold dilutions of test compounds. […] Bacterial growth was determined by measuring the absorption at 650 nm by using a microtiter ELISA reader.
# E. coli FabI = target: T1, E. coli FabI (Escherichia coli, UniProt P0AEK4); test: E. coli FabI enzyme assay (NADH as cofactor); format: biochemical
# T1 construct: made in house
# Description: (§2) S. aureus FabI and E. coli FabI enzymes were cloned, overexpressed, and purified as described previously. The wild-type fabK gene was amplified by PCR from genomic DNA obtained from Streptococcus pneumoniae KCTC 5412 by using the primers 5′-[…]-3′ and 5′-[…]-3′, which contained NdeI and XhoI restriction sites, respectively. After the DNA sequence was confirmed, the gene was cloned into the pET22b vector (Novagen, Gibbstown, NJ, USA). The construct was transformed into E. coli BL21 (DE3) for expression following induction with isopropylthiogalactoside. The C-terminal His-tagged protein was purified as described previously. Assays were conducted in half-area, 96-well microtiter plates. The compounds were dissolved in DMSO and evaluated in 100-μL assay mixtures containing components specific for each enzyme (see below). Reduction of the trans-2-octenoyl N-acetylcysteamine (t-o-NAC thioester) substrate analog was measured spectrophotometrically following the utilization of NADH or NADPH at 340 nm at 30°C for the linear period of the assay. S. aureus FabI assays contained 50 mM sodium acetate (pH 6.5), 200 μM t-o-NAC thioester, 200 μM NADPH, and 150 nM S. aureus FabI.
# (§3) NADH was used as a cofactor rather than NADPH for the E. coli FabI assay. Substrate concentrations used for the Lineweaver–Burk plot were 100, 200, 300, and 400 μM, whereas the concentrations of the cofactor were 100, 200, 400, and 600 μM. The rate of decrease in the amount of NADPH in each reaction was measured with a microtiter enzyme-linked immunosorbent assay (ELISA) reader by using the SOFTmax PRO software (Molecular Devices, Sunnyvale, CA, USA). The inhibitory activity was calculated according to the following formula: % of inhibition = 100× [1− (rate in the presence of compound/rate in the untreated control)]. IC50 values were calculated by fitting the data to a sigmoid equation. An equal volume of DMSO solvent was used for the untreated control. FabK assays contained 100 mM sodium acetate (pH 6.5), 2% glycerol, 200 mM NH4Cl, 50 µM t-o-NAC thioester, 200 µM NADH, and 150 nM S. pneumoniae FabK.
# [1] = system: incorporation of leucine into proteins in S. aureus; test: [14C] leucine incorporation into proteins in S. aureus; format: cell-based; conditions: Staphylococcus aureus
# Description: To monitor the effects of compound 1 on lipid, DNA, RNA, protein, and cell wall biosynthesis, its effects on the incorporation of [1-^14C] acetate (50 mCi/mmol), [2-^14C] thymidine (59.8 mCi/mmol), [U-^14C] uridine (539 mCi/mmol), L-[U-^14C] leucine (306 mCi/mmol) or L-[U-^14C] isoleucine (329 mCi/mmol), and N-acetyl-D-[1-^14C] glucosamine (58.1 mCi/mmol) into S. aureus and S. pneumoniae were measured as described previously. S. aureus was exponentially grown to an A650 of 0.2 in Mueller–Hinton broth. S. pneumoniae was grown in tryptic soy broth supplemented with 5% sheep blood. […] An equal volume of DMSO solvent was added to the untreated control. After incubation with the radiolabeled precursors at 37°C for 1 h, followed by centrifugation, the cell pellets were washed twice with PBS buffer. After acetate incorporation, the total cellular lipids were extracted with chloroform-methanol-water. The incorporated radioactivity in the chloroform phase was measured by scintillation counting. For the other precursors, incorporation was terminated by adding 10% (w/v) TCA and cooling on ice for 20 min. The precipitated material was collected on Whatman GF/C glass microfiber filters, washed with TCA and ethanol, dried, and counted using a scintillation counter. The total counts incorporated at 1 h of incubation without inhibitors ranged from >7,000 for [U-^14C] uridine to <13,000 for [1-^14C] acetate. […] In all experiments, known antibacterial agents were included as positive controls.
# We measured their effects on the incorporation of [1-^14C] acetate into membrane fatty acids in S. aureus. […] In contrast, the incorporation of leucine into proteins was not inhibited by the active compounds (Table 1), whereas the protein synthesis inhibitor, chloramphenicol, inhibited incorporation (data not shown).
# S. pneumoniae FabK = target: T2, S. pneumoniae FabK (Streptococcus pneumoniae, UniProt Q9FBC5); test: S. pneumoniae FabK enzyme assay; format: biochemical
# T2 sequence (Q9FBC5 1-324): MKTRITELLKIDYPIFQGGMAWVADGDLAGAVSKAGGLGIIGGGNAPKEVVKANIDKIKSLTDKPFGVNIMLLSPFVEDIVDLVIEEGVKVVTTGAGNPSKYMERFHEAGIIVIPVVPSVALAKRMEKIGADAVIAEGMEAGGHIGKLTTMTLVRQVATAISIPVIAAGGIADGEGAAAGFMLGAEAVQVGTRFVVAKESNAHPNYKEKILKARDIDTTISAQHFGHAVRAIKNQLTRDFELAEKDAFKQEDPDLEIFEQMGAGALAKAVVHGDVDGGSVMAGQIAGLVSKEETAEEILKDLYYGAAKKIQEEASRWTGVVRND
# Description: as §2, §3
# E. coli KCTC 1924 = test: MIC by broth microdilution, E. coli KCTC 1924; format: cell-based; conditions: Escherichia coli
# Description: as §1
# [2] = KCTC1924, E. coli KCTC 1924, read-out: MIC E. coli
# [3] = S. pneumoniae FabK, read-out: IC50 spFabK
# [4] = KCTC1924, read-out: MIC E. coli
# T1 sequence (P0AEK4 whole entry): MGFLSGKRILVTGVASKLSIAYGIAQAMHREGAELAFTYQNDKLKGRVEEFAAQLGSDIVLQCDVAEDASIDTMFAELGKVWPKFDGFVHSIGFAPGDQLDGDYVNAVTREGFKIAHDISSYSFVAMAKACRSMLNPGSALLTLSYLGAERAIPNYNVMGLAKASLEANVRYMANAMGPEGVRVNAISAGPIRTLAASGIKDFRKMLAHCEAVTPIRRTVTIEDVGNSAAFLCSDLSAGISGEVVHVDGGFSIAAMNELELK
Structure (SMILES),MIC (S. aureus RN4220) [µg/mL],IC50 (E. coli FabI) [µM],IC50 [1] [µM],IC50 (S. pneumoniae FabK) [µM],MIC (E. coli KCTC 1924; [2]) [µg/mL],Antibacterial activity relative to compound 1 (S. aureus RN4220),IC50 (S. pneumoniae FabK; [3]) [µM],"MIC (E. coli KCTC 1924; KCTC1924, 24 h, read-out: MIC E. coli) [µg/mL]",MIC (E. coli KCTC 1924; [4]) [µg/mL]
"C=CC(C)(C)C12C=C(OC)C(=O)N3/C(=C/c4cnc[nH]4)C(=O)NC31N(OC)c1ccccc12 (stereo not shown) [Compound 3, oxaline]",64,38.8,> 200,> 200,32,–,–,–,–
"C=CC(C)(C)C12C=C(OC)C(=O)N3/C(=C/c4cnc[nH]4)C(=O)N(C)C31N(OC)c1ccccc12 (stereo not shown) [Compound 5, O,N^14-dimethylmeleagrin]",16,15.6,> 200,–,8,2–4 times,> 200,–,–
"Oc1cc(Cl)ccc1Oc1ccc(Cl)cc1Cl [Triclosan, reference compound]",0.01,–,> 10,> 200,–,–,–,0.02,0.01
"C=CC(C)(C)C12C=C(OC)C(=O)N3/C(=C/c4cnc[nH]4)C(=O)N(C)C31Nc1ccccc12 (stereo not shown) [Compound 6, O,N^14-dimethylglandicolin]",16,15.4,> 200,> 200,–,2–4 times,–,–,8
C=CC(C)(C)C12C=C(O)C(=O)N3/C(=C/c4cnc[nH]4)C(=O)NC31Nc1c(Br)cccc12 (stereo not shown) [Compound 7],> 128,> 200,> 200,–,> 128,–,> 200,–,–
"C=CC(C)(C)C12C=C(O)C(=O)N3/C(=C/c4cnc[nH]4)C(=O)NC31N(OC)c1ccccc12 (stereo not shown) [Compound 1, meleagrin]",64,33.2,> 200,> 200,–,–,–,–,32
"C=CC(C)(C)C12C=C(O)C(=O)N3/C(=C/c4cnc[nH]4)C(=O)N(C)C31N(OC)c1ccccc12 (stereo not shown) [Compound 4, N^14-methylmeleagrin]",64,33.1,> 200,> 200,–,–,–,–,32
